The text below walks through data of ChEMBL document CHEMBL6074630, “Discovery of potent LRRK2 inhibitors by ensemble virtual screening strategy and bioactivity evaluation” (Eur J Med Chem, 2024).

Activity calls are given as the source filed them. The calls are words filed in the database; no cut-off is given here.

Data set [1] addresses T1, Leucine-rich repeat serine/threonine-protein kinase 2 (Homo sapiens, UniProt Q5S007). The data set can be described thus: Inhibition of wild type LRRK2 (unknown origin) using LRRKtide as substrate incubated for 60 mins in presence of ATP by ADP-Glo reagent based assay. Background: ADP-Glo turns the ADP formed in a reaction into a luminescent signal.
The nature of data set [2]: Toxicity in wild type Zebrafish AB larvae administered from 3 days post fertilization and measured after 96 hrs. Further details: species or system Danio rerio. As to conditions: in vivo.
For data set [3], the species on record is Danio rerio. The data set can be described thus: Neuroprotective activity against 6-OHDA-induced neurotoxicity in wild type Zebrafish AB larvae assessed as increase in travel distance at high velocity at 12.5 uM treated with compound from 3 days post fertilization and measured after 4 days. Type of data set: functional, organism-based. The following applies: time 4.0 day.

Data set [4] is described as follows: Toxicity in wild type Zebrafish AB larvae assessed as effect on survival rate at 12.5 to 100 uM administered from 3 days post fertilization and measured after 96 hrs. The following applies: in vivo, dose 12.5-100 µM. Further details: species or system Danio rerio.
The target in data set [5] is T1, Leucine-rich repeat serine/threonine-protein kinase 2. Nature of the data set: Inhibition of 3xFlag-Puro-tagged wildtype human LRRK2 phosphorylation at Ser935 residue overexpressed in HEK293T cells incubated for 24 hrs by SDS-PAGE analysis. In kind it is cell-based.
Data set [6] deals with T2, Leucine-rich repeat serine/threonine-protein kinase 2 (Homo sapiens, UniProt Q5S007, G2019S). Nature of the data set: (§1) Inhibition of 3xFlag-Puro-tagged human LRRK2 G2019S mutant phosphorylation at Ser935 residue overexpressed in HEK293T cells incubated for 24 hrs by SDS-PAGE analysis. Type of data set: cell-based.
T2 sequence (Q5S007 whole entry G2019S): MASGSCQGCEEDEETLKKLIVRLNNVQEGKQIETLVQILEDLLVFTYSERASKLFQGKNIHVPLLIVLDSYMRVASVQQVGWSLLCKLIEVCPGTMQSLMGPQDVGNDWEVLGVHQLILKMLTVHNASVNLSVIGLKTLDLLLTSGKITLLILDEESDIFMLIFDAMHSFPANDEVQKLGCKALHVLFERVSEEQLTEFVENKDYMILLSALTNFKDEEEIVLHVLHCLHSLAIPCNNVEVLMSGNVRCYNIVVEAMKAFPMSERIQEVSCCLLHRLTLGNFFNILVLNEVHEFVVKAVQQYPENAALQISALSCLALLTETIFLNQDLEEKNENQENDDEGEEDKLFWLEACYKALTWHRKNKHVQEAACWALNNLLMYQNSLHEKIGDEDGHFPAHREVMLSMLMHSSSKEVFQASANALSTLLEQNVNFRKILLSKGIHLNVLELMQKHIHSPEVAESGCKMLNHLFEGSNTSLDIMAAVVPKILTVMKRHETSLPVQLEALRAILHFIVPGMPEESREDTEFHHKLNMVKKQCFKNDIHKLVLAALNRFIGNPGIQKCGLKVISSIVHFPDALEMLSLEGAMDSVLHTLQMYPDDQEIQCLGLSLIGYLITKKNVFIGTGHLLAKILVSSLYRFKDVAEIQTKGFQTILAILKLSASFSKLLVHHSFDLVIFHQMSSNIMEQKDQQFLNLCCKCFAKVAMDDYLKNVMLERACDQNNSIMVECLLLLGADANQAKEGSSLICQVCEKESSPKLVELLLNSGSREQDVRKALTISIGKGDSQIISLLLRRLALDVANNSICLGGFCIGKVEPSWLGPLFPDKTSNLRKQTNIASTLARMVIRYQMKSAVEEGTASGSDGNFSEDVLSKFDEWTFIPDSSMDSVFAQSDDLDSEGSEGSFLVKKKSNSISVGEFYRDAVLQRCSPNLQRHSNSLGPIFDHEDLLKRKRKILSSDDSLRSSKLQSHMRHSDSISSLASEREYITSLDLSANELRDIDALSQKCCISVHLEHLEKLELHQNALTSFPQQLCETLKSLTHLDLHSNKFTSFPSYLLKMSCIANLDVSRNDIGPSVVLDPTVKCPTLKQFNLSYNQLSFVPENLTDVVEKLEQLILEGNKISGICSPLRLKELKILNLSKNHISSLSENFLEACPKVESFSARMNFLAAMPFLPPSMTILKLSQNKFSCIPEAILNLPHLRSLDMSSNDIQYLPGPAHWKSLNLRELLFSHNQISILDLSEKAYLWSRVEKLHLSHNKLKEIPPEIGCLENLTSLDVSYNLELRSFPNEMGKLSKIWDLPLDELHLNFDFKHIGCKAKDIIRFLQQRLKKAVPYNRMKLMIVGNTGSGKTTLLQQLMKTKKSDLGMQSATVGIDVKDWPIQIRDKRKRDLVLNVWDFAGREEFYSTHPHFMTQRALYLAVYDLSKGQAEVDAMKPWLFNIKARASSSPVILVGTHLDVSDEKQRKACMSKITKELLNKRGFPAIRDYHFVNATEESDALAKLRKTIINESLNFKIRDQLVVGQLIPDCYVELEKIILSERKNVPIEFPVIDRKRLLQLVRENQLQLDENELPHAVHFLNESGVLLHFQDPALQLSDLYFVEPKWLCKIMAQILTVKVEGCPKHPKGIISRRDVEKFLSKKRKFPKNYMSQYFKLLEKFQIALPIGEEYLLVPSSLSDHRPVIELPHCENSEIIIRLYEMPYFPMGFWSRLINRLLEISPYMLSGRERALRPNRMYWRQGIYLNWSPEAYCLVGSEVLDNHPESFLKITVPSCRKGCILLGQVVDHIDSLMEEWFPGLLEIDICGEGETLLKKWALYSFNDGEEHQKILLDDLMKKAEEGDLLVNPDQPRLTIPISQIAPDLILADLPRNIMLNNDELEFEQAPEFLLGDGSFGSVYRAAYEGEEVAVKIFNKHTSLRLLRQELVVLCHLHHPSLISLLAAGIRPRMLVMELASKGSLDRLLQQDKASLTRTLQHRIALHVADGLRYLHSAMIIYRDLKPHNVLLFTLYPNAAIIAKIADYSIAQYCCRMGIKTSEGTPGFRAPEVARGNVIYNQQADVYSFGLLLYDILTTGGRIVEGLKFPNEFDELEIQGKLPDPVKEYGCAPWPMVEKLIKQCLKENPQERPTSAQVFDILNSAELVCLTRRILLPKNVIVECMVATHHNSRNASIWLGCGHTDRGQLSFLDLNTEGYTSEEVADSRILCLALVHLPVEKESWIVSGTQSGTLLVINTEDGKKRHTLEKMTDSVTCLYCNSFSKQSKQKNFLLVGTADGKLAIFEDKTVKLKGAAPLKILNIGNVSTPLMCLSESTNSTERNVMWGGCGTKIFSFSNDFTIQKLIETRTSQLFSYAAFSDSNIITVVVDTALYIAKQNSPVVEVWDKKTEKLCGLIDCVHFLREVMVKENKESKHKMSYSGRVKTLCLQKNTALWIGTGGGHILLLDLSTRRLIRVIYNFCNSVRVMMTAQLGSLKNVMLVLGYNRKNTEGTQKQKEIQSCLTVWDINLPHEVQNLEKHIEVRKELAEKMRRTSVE
For data set [7], the system named is Leucine-rich repeat serine/threonine-protein kinase 2 (Homo sapiens), Q5S007 [G2019S]. The description is as §1. In kind it is cell-based.
Leucine-rich repeat serine/threonine-protein kinase 2 (Homo sapiens), Q5S007 [G2019S], sequence (Q5S007 whole entry G2019S): as above
The species entered for data set [8] is Danio rerio. Nature of the data set: Neuroprotective activity against 6-OHDA-induced neurotoxicity in wild type Zebrafish AB larvae assessed as increase of total movement distance at 12.5 uM treated with compound from 3 days post fertilization and measured after 4 days. Type of data set: functional, organism-based. As to conditions: time 4.0 day.
Data set [9] concerns the target T1, Leucine-rich repeat serine/threonine-protein kinase 2. Nature of the data set: Inhibition of 3xFlag-Puro-tagged wildtype human LRRK2 phosphorylation at Ser935 residue overexpressed in HEK293T cells at 10 uM incubated for 24 hrs by SDS-PAGE analysis relative to control. Type of data set: cell-based.
The target is the same in data set [10]. The data set can be described thus: Inhibition of wild type LRRK2 (unknown origin) using LRRKtide as substrate at 10 uM incubated for 60 mins in presence of ATP by ADP-Glo reagent based assay relative to control.
Data set [11] has as its system Leucine-rich repeat serine/threonine-protein kinase 2 (Homo sapiens), Q5S007 [G2019S]. The data set can be described thus: Inhibition of 3xFlag-Puro-tagged human LRRK2 G2019S mutant phosphorylation at Ser935 residue overexpressed in HEK293T cells at 10 uM incubated for 24 hrs by SDS-PAGE analysis relative to control. In kind it is cell-based.
Data set [12] concerns the target T2, Leucine-rich repeat serine/threonine-protein kinase 2. Nature of the data set: Inhibition of LRRK2 G2019S mutant (unknown origin) using LRRKtide as substrate incubated for 60 mins in presence of ATP by ADP-Glo reagent based assay.
Data set [13] deals with Leucine-rich repeat serine/threonine-protein kinase 2 (Homo sapiens), Q5S007 [G2019S]. Nature of the data set: Inhibition of LRRK2 G2019S mutant (unknown origin) using LRRKtide as substrate at 10 uM incubated for 60 mins in presence of ATP by ADP-Glo reagent based assay relative to control.
The species entered for data set [14] is Danio rerio. Nature of the data set: Neuroprotective activity against 6-OHDA-induced neurotoxicity in wild type Zebrafish AB larvae assessed as improvement in swimming behavior at 150 uM treated with compound from 3 days post fertilization and measured after 4 days. Type of data set: functional, organism-based. The following applies: time 4.0 day.
For data set [15], the species on record is Danio rerio. Nature of the data set: Neuroprotective activity against 6-OHDA-induced neurotoxicity in wild type Zebrafish AB larvae assessed as increase in total swimming distance at 150 uM treated with compound from 3 days post fertilization and measured after 4 days. Type of data set: functional, organism-based. The following applies: time 4.0 day.
Data set [16] is filed under the species Danio rerio. The data set can be described thus: Neuroprotective activity against 6-OHDA-induced neurotoxicity in wild type Zebrafish larvae AB assessed as increase in travel distance at high velocity at 12.5 to 50 uM treated with compound from 3 days post fertilization and measured after 4 days. The following applies: dose 12.5-50 µM, time 4.0 day. Type of data set: functional, organism-based.

Data set [17] is filed under the species Danio rerio. The data set can be described thus: Neuroprotective activity against 6-OHDA-induced neurotoxicity in wild type Zebrafish AB larvae assessed as increase in travel distance at high velocity treated with compound from 3 days post fertilization and measured after 4 days. Type of data set: functional, organism-based. As to conditions: dose 12.5-50 µM, time 4.0 day.

For data set [18], the species on record is Danio rerio. The data set can be described thus: Neuroprotective activity against 6-OHDA-induced neurotoxicity in wild type Zebrafish AB larvae assessed as increase in travel distance at high velocity at 50 uM treated with compound from 3 days post fertilization and measured after 4 days. Type of data set: functional, organism-based. The following applies: time 4.0 day.

T1 sequence (Q5S007 whole entry): as the sequence (Q5S007 whole entry G2019S) above, with S2019G counted along it

By IC50 is commonly meant the concentration needed to halve the response being measured. As usually defined, the LC50 is the concentration that kills 50% of the test population. Lower therefore signals greater toxicity. What is called inhibition is the drop in the measured response relative to a control, in per cent. On to `COc1cc(C(=O)N2CCC(N3CCN(C)CC3)CC2)ccc1Nc1ncc2c(n1)N(C)c1ccccc1C(=O)N2C`, for which the IC50 is 3.1 nM in data set [1], 17 nM in data set [5] and 22.1 nM in data set [6]. This compound also registered an LC50 at 96 h in data set [2] of over 100 µM. Besides, the result in the data set filed under Danio rerio [3] and in the data set filed under Danio rerio [8] was Active. Besides, in data set [4], the Activity result is recorded as “Toxic”. The inhibition result in [5] and in data set [7] was “Dose-dependent-effect” in each case.

Take `O=C(Nc1n[nH]c2ccccc12)c1cc(-c2cccnc2)n[nH]1`: the half-inhibitory concentration (IC50) in [1] was determined as 803 nM; in [5] it was 1190 nM; in [6] it was 605 nM; in data set [12], 556 nM. Further, the inhibition entry in [5] is “Dose-dependent-effect”; in data set [9] it was over 80%; in data set [10], over 80%; in data set [11], over 60%; in [7] it was “Dose-dependent-effect”; in data set [13] it was over 80%.

As for `Fc1ccc(-c2n[nH]cc2/C=N\Nc2nc3ccccc3[nH]2)cc1`, the IC50 stood at 3120 nM in [1] and 4920 nM in data set [12]. In addition, the inhibition in data set [10] and in [13] was over 50% throughout.

For the compound `Cl.c1cc(OCCN2CCCCC2)cc(-c2n[nH]c3ccc(-c4nc[nH]n4)cc23)c1`, the IC50 is 9.6 nM in [1], 27.1 nM in [5], 49.1 nM in data set [6] and 22.4 nM in data set [12]. The same compound registered a median lethal concentration (LC50) at 96 h in [2] of over 100 µM. In addition, in [4], the Activity entry is listed as “Toxic”.

Turning to `c1ccc2c(c1)ncn1nc(-c3cc(C4CC4)[nH]n3)nc21`, the results for the half-inhibitory concentration (IC50) in [1] and in data set [12] were 7150 nM and 5590 nM, respectively. Further, the inhibition in data set [10] and in [13] was over 50% each time.

As to `CNC(=O)c1sc2ccc(NC(=O)c3n[nH]c4ccccc34)cc2c1OC`, the IC50 came to 50300 nM in data set [1] and 2090 nM in data set [12]. The inhibition in [10] and in data set [13] was over 50% in each case.

As for `N[C@@H](Cc1ccc(O)c(O)c1)C(=O)O`, the outcome in the data set listed under Danio rerio [14] and in the data set filed under Danio rerio [15] was Active.

As to `c1cc(OCCN2CCCCC2)cc(-c2n[nH]c3ccc(-c4nnc[nH]4)cc23)c1`, the inhibition result is “Dose-dependent-effect” in data set [5]; over 80% in data set [9]; over 80% in [10]; over 60% in data set [11]; “Dose-dependent-effect” in [7]; over 80% in [13]. For the same compound, the outcome in the data set listed under Danio rerio [16] was inactive.

For the compound `CC[C@](C)(Nc1ccnc(-c2c[nH]c3ncccc23)n1)C(=O)NCC(F)(F)F`, the IC50 in data set [1] turned out to be 1340 nM; in data set [5] it was 1670 nM; in data set [6], 337 nM; in data set [12] it was 218 nM. For the same compound, in data set [2], the 50% lethal concentration (LC50) at 96 h is over 100 µM. Also, the figures for the Activity entry (in the data set filed under Danio rerio [17]; in [4]) were “Dose-dependent-effect” and “Toxic”, respectively. Also, the inhibition result was “Dose-dependent-effect” in [5]; over 80% in [9]; over 80% in [10]; over 60% in [11]; “Dose-dependent-effect” in [7]; over 80% in data set [13]. For the same compound, in the data set filed under Danio rerio [18], the outcome was Active.

Turning to `Cn1cccc1-c1cc(C(=O)N/N=C2/C(=O)Nc3ccccc32)[nH]n1`, the IC50 was 39400 nM in data set [1] and 3630 nM in data set [12]. For the same compound, the inhibition in [10] and in data set [13] was over 50% each time.
